Laboratory results as given in PubChem BioAssay AID256 (DTP/NCI, 2004).
Where “and” joins values, the source holds several entries; their conditions need not be identical. Equal values may be shown once. Inconclusive results and toxic doses are left out. How the source made its calls: active means survival T/C of 150% or more; inactive means T/C below 125% in these data.

Test system: CD2F1 mice, L1210 leukemia ip, survival T/C
Assay: NCI In Vivo Anticancer Drug Screen. Data for tumor model L1210 Leukemia (intraperitoneal) in CD2F1 (CDF1) mice
Details: higher = longer survival
Procedure, shortened: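 Each value reflects a quotient of treated over vehicle control outcomes in mice with a transplanted tumor.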

[1] = endpoint: mean survival time, dose: 100.0 mg/kg/injection, schedule: Q01DX009 (ip), vehicle: saline with Tween-80
[2] = endpoint: mean survival time, dose: 100.0 mg/kg/injection, schedule: Q04DX003 (ip), vehicle: saline with Tween-80
[3] = endpoint: mean survival time, dose: 200.0 mg/kg/injection, schedule: Q01DX009 (ip), vehicle: saline with Tween-80
[4] = endpoint: mean survival time, dose: 200.0 mg/kg/injection, schedule: Q04DX003 (ip), vehicle: saline with Tween-80
[5] = endpoint: mean survival time, dose: 400.0 mg/kg/injection, schedule: Q01DX009 (ip), vehicle: saline with Tween-80
[6] = endpoint: mean survival time, dose: 400.0 mg/kg/injection, schedule: Q04DX003 (ip), vehicle: saline with Tween-80
[7] = endpoint: mean survival time, dose: 100.0 mg/kg/injection, schedule: Q01DX001 (ip), vehicle: saline with Tween-80
[8] = endpoint: mean survival time, dose: 200.0 mg/kg/injection, schedule: Q01DX001 (ip), vehicle: saline with Tween-80
[9] = endpoint: mean survival time, dose: 400.0 mg/kg/injection, schedule: Q01DX001 (ip), vehicle: saline with Tween-80
[10] = endpoint: mean survival time, dose: 100.0 mg/kg/injection, schedule: Q01DX009 (ip), vehicle: Klucel (hydroxypropylcellulose) (HPC)
[11] = endpoint: mean survival time, dose: 200.0 mg/kg/injection, schedule: Q01DX009 (ip), vehicle: Klucel (hydroxypropylcellulose) (HPC)

Measured: T/C

C=C(C)CSC(=S)NNc1ccccc1
inactive: endpoint: mean survival time, dose: 25.0 mg/kg/injection, schedule: Q01DX009 (ip), vehicle: acetone 93 % of control | endpoint: mean survival time, dose: 50.0 mg/kg/injection, schedule: Q01DX009 (ip), vehicle: acetone 96 % of control | endpoint: mean survival time, dose: 100.0 mg/kg/injection, schedule: Q01DX009 (ip), vehicle: acetone 102 % of control

O=C(CBr)c1cccnc1
inactive: endpoint: mean survival time, dose: 6.25 mg/kg/injection, schedule: Q04DX003 (ip), vehicle: saline 95 % of control | endpoint: mean survival time, dose: 12.5 mg/kg/injection, schedule: Q04DX003 (ip), vehicle: saline 98 % of control | endpoint: mean survival time, dose: 25.0 mg/kg/injection, schedule: Q04DX003 (ip), vehicle: saline 101 % of control

COC(=O)c1cc(I)ccc1O
inactive: [1] 107 % of control | [2] 103 % of control | [3] 109 % of control | [4] 100 % of control | [5] 103 % of control | [6] 100 % of control

COc1ccc(P(c2ccc(OC)cc2)c2ccc(OC)cc2)cc1
inactive: endpoint: mean survival time, dose: 50.0 mg/kg/injection, schedule: Q04DX003 (ip), vehicle: saline with Tween-80 97 % of control | [2] 96 % of control | [4] 91 % of control

CCCS(=O)(=O)CS(=O)(=O)CC
inactive: endpoint: mean survival time, dose: 75.0 mg/kg/injection, schedule: Q01DX001 (ip), vehicle: saline with Tween-80 100 % of control | endpoint: mean survival time, dose: 150.0 mg/kg/injection, schedule: Q01DX001 (ip), vehicle: saline with Tween-80 92 % of control | endpoint: mean survival time, dose: 300.0 mg/kg/injection, schedule: Q01DX001 (ip), vehicle: saline with Tween-80 90 % of control

O=S1CCS(=O)CC1 (configuration not stated)
inactive: endpoint: mean survival time, dose: 100.0 mg/kg/injection, schedule: Q01DX001 (ip), vehicle: saline 96 % of control | endpoint: mean survival time, dose: 200.0 mg/kg/injection, schedule: Q01DX001 (ip), vehicle: saline 93 % of control | endpoint: mean survival time, dose: 400.0 mg/kg/injection, schedule: Q01DX001 (ip), vehicle: saline 98 % of control

Cc1ccc(Nc2ccc(O)c3c2C(=O)c2c(O)ccc(Nc4ccc(C)cc4)c2C3=O)cc1
inactive: [1] 88 % of control | [3] 88 % of control | [5] 98 % of control

CC(O)CC1CCCC(CC(C)O)N1 (configuration not stated)
inactive: endpoint: mean survival time, dose: 5.0 mg/kg/injection, schedule: Q01DX001 (ip), vehicle: saline 103 % of control | endpoint: mean survival time, dose: 10.0 mg/kg/injection, schedule: Q01DX001 (ip), vehicle: saline 97 % of control | endpoint: mean survival time, dose: 20.0 mg/kg/injection, schedule: Q01DX001 (ip), vehicle: saline 103 % of control | endpoint: mean survival time, dose: 40.0 mg/kg/injection, schedule: Q01DX001 (ip), vehicle: saline 105 % of control | endpoint: mean survival time, dose: 75.0 mg/kg/injection, schedule: Q01DX001 (ip), vehicle: saline 98 % of control | endpoint: mean survival time, dose: 300.0 mg/kg/injection, schedule: Q01DX001 (ip), vehicle: saline 102 % of control

C=CCN(CC#N)CC#N
inactive: endpoint: mean survival time, dose: 2.5 mg/kg/injection, schedule: Q04DX003 (ip), vehicle: Klucel (hydroxypropylcellulose) (HPC) 106 % of control | endpoint: mean survival time, dose: 5.0 mg/kg/injection, schedule: Q04DX003 (ip), vehicle: Klucel (hydroxypropylcellulose) (HPC) 97 % of control | endpoint: mean survival time, dose: 10.0 mg/kg/injection, schedule: Q04DX003 (ip), vehicle: Klucel (hydroxypropylcellulose) (HPC) 105 % of control

CCCCCCCCCCCCCCCCCC[N+]1(C)CCSCC1
inactive: endpoint: mean survival time, dose: 12.5 mg/kg/injection, schedule: Q01DX001 (ip), vehicle: saline with Tween-80 95 % of control | endpoint: mean survival time, dose: 25.0 mg/kg/injection, schedule: Q01DX001 (ip), vehicle: saline with Tween-80 103 % of control | endpoint: mean survival time, dose: 50.0 mg/kg/injection, schedule: Q01DX001 (ip), vehicle: saline with Tween-80 104 % of control | [7] 91 % of control and 101 % of control | [8] 101 % of control and 110 % of control

CC(C(=O)c1cccs1)=C(C(F)(F)F)C(F)(F)F
inactive: endpoint: mean survival time, dose: 6.25 mg/kg/injection, schedule: Q01DX009 (ip), vehicle: other 100 % of control | endpoint: mean survival time, dose: 12.5 mg/kg/injection, schedule: Q01DX009 (ip), vehicle: other 94 % of control | endpoint: mean survival time, dose: 25.0 mg/kg/injection, schedule: Q01DX009 (ip), vehicle: other 100 % of control | endpoint: mean survival time, dose: 50.0 mg/kg/injection, schedule: Q01DX009 (ip), vehicle: other 97 % of control

O=C(O)c1ccccc1-c1ccccc1C(=O)Nc1ccc2c(c1)Cc1ccccc1-2
inactive: endpoint: mean survival time, dose: 62.5 mg/kg/injection, schedule: Q04DX003 (ip), vehicle: saline with Tween-80 101 % of control | endpoint: mean survival time, dose: 125.0 mg/kg/injection, schedule: Q04DX003 (ip), vehicle: saline with Tween-80 98 % of control | endpoint: mean survival time, dose: 250.0 mg/kg/injection, schedule: Q04DX003 (ip), vehicle: saline with Tween-80 98 % of control

O=C(Cl)c1ccccc1/C=C/c1ccc([N+](=O)[O-])cc1
inactive: [7] 105 % of control | [8] 103 % of control | [9] 96 % of control

CCOC(=O)c1cc(-c2ccc3ccccc3n2)c(O)c2cc3ccccc3nc12
inactive: [2] 93 % of control | [4] 87 % of control | [6] 90 % of control

O/N=C/c1cc[n+](CCC[n+]2ccc(/C=N/O)cc2)cc1
inactive: endpoint: mean survival time, dose: 5.0 mg/kg/injection, schedule: Q01DX009 (ip), vehicle: saline sonified 98 % of control | endpoint: mean survival time, dose: 5.0 mg/kg/injection, schedule: Q04DX003 (ip), vehicle: saline 103 % of control | endpoint: mean survival time, dose: 10.0 mg/kg/injection, schedule: Q01DX009 (ip), vehicle: saline sonified 98 % of control | endpoint: mean survival time, dose: 10.0 mg/kg/injection, schedule: Q04DX003 (ip), vehicle: saline 105 % of control | endpoint: mean survival time, dose: 20.0 mg/kg/injection, schedule: Q01DX009 (ip), vehicle: saline sonified 95 % of control | endpoint: mean survival time, dose: 20.0 mg/kg/injection, schedule: Q04DX003 (ip), vehicle: saline 101 % of control

CC(C)(C)NC(C1=CC(C)(C)c2ccccc2C1=O)c1ccccc1 (configuration not stated)
inactive: endpoint: median survival time, dose: 50.0 mg/kg/injection, schedule: Q01DX009 (ip), vehicle: Klucel (hydroxypropylcellulose) (HPC) 101 % of control | endpoint: median survival time, dose: 100.0 mg/kg/injection, schedule: Q01DX009 (ip), vehicle: Klucel (hydroxypropylcellulose) (HPC) 101 % of control | endpoint: median survival time, dose: 200.0 mg/kg/injection, schedule: Q01DX009 (ip), vehicle: Klucel (hydroxypropylcellulose) (HPC) 101 % of control

C[n+]1ccc(Nc2ccc(NC(=O)c3ccc(Nc4ccnc5ccc([N+](=O)[O-])cc45)cc3[N+](=O)[O-])cc2)cc1
inactive: [7] 96 % of control | [8] 95 % of control | [9] 93 % of control

COc1ccc(OC)c(NC(=O)NNc2ccc([N+](=O)[O-])cc2[N+](=O)[O-])c1
inactive: [1] 88 % of control | [3] 91 % of control

CCCCCCCCCCCC1CCCC(C)N1 (configuration not stated)
inactive: endpoint: mean survival time, dose: 50.0 mg/kg/injection, schedule: Q04DX002 (ip), vehicle: saline with Tween-80 98 % of control

C=C1C(O)CC2CC1C2(C)C (configuration not stated)
inactive: endpoint: mean survival time, dose: 50.0 mg/kg/injection, schedule: Q01DX009 (ip), vehicle: saline with Tween-80 98 % of control

CN1CCOc2ccccc2OCCOCCOc2ccccc2OCC1
inactive: [10] 105 % of control | [11] 106 % of control

N#CCCN1CCS(=O)(=O)C1=O
inactive: endpoint: mean survival time, dose: 19.0 mg/kg/injection, schedule: Q01DX001 (ip), vehicle: other 107 % of control | endpoint: mean survival time, dose: 38.0 mg/kg/injection, schedule: Q01DX001 (ip), vehicle: other 115 % of control | endpoint: mean survival time, dose: 75.0 mg/kg/injection, schedule: Q01DX001 (ip), vehicle: other 112 % of control | endpoint: mean survival time, dose: 150.0 mg/kg/injection, schedule: Q01DX001 (ip), vehicle: other 117 % of control and 109 % of control

Cc1nc2ccc(CCN3CCN(c4ccccc4Cl)CC3)cc2[nH]1
inactive: endpoint: mean survival time, dose: 50.0 mg/kg/injection, schedule: Q04DX003 (ip), vehicle: Klucel (hydroxypropylcellulose) (HPC) 112 % of control

CN(C)c1ccc(-c2nc3ccccc3s2)cc1
inactive: endpoint: mean survival time, dose: 50.0 mg/kg/injection, schedule: Q01DX009 (ip), vehicle: Klucel (hydroxypropylcellulose) (HPC) 106 % of control | [10] 96 % of control | [11] 98 % of control
